Assay results taken from patent US9440980B2, “Remedy for diabetes” (EA Pharma Co., Ltd., priority 2007, dated 2016).

How the values were obtained:
[1] = target: T1, binding between the Gβ and the p110β (PI3-kinase β) (Homo sapiens, UniProt P42338+P62873); assay: Binding of Gβ1γ2-Myc to PI3-kinase β (immunoprecipitation, Western blot); conditions: Compound 1 (0.1 μM) and Compound 6 (1 mM) approximately the same effect; FIG. 15
T1 construct: purchased Upstate 14-603
Description: 300 μl of a PI3K buffer (40 mM HEPES-Na (pH 7.4), 120 mM NaCl, 1 mM EGTA, 1 mM dithiothreitol, 1 mM β glycerophosphoric acid, 10 mM MgCl2, 0.1% BSA) was added to a 1.5-ml microtube, and to this were added 200 ng of the Gβ1γ2-Myc obtained in Example 20 (1), 160 ng of PI3-kinase β (PI3 Kinase (p110β/p85α), active, Upstate, Product No. 14-603), and a test substance. The mixture was left at room temperature for 30 minutes, to this was added 10 μl of a solution of an anti-cMyc antibody (9E10, 200 μg/ml, SantaCruz, Product No. sc-40), and the resulting mixture was left at room temperature for 2 hours. To the solution was added 25 μl of anti-mouse IgG agarose beads (American Qualex, Product No. 61060) which were washed with the same buffer, stirred at room temperature for 1 hour and centrifuged (10000 rpm, 1 minute) to remove the supernatant. Furthermore, the beads were washed with 0.5 ml of the buffer 3 times, eluted in a boiling SDS-containing buffer, and subjected to an SDS polyacrylamide electrophoresis. Then, the amounts of the p110β and the Gβ adsorbed to the beads were measured by a Western blot method using an anti-p110β antibody (SantaCruz, Product No. sc-602) and an anti-Gβ antibody (SantaCruz, Product No. sc-261).

[2] = test system: PI3-kinase α (p110α/p85α); assay: PI3-kinase subtype activity in the presence of Gβ1γ2-Myc (PIP3 production, 32P-ATP, TLC); format: biochemical; conditions: 30 μM, FIG. 13
Description: The subtypes α (PI3 Kinase (p110α/p85α), active, Upstate, Product No. 14-602), β (PI3 Kinase (p110β/p85α), active, Upstate, Product No. 14-603), γ ((PI3KγHis-GST (Phosphoinositide 3-kinase p110γHis/p101GST) human, Recombinant, Sf9 insect cell, JENA Bioscience, Product No. PR-347S), and δ (PI3 Kinase (p110δ/p85α), active, Upstate, Product No. 14-604) were used as the PI3-kinase subtypes respectively. A PI3K buffer (40 mM HEPES-Na (pH 7.4), 120 mM NaCl, 1 mM EGTA, 1 mM dithiothreitol, 1 mM β glycerophosphoric acid, 10 mM MgCl2, 0.1% BSA) was used as a buffer in the following reactions.
A mixture liquid of phosphatidylethanolamine (0.256 μmol), phosphatidylserine (0.24 μmol), phosphatidylcholine (0.112 μmol), sphingomyelin (0.024 μmol), and phosphatidylinositol-[4,5]-bisphosphate (0.032 μmol) was added to a glass tube and dried by argon gas, and to this was added the PI3K buffer (0.27 ml) at ice temperature. This solution was ultrasonic-treated in ice to prepare a lipid micelle solution. […] The data were analyzed by a software of BAS2000, the analysis region was controlled such that spots of phosphatidylinositol-[3,4,5]-trisphosphate (PIP3) in the TLC lanes have the same areas, and the energy (PSL) corresponding to each radioactivity was quantified in the region.

[3] = test system: Akt phosphorylation in human liver-derived HLF cell; assay: Akt phosphorylation activity in Gβ expression inhibited HLF cell (siRNA, Western blot); format: cell-based; conditions: FIG. 16
Description: The effect of Gβ expression inhibition by a siRNA method against the Akt phosphorylation activity of Compound 6 in a human liver-derived HLF cell was evaluated as follows.
The HLF cells were seeded in a Dulbecco MEM medium containing 10% FCS in a 24-well dish (IWAKI, Product No. 3820-024) at a ratio of 3.75×10^4 cells/well. The cells were cultured at 37° C. for 6 hours in the presence of 5% CO2 to achieve sufficient attachment, a siRNA was transfected into the cells at the concentration of 100 nM using Dharmafect 2 (Dharmacon, Product No. T-2002-02), and the resultant cells were cultured at 37° C. for 48 hours in the presence of 5% CO2. […] Each solution was subjected to an SDS polyacrylamide electrophoresis, and the phosphorylated Akt amount, the Gβ1 amount, the Gβ2 amount, and the Gβ4 amount were measured by a Western blot method using an anti-phosphorylated Akt antibody (Cell Signaling Technologies, Product No. 9271), an anti-Gβ1 antibody (SantaCruz, Product No. sc-379), an anti-Gβ2 antibody (SantaCruz, Product No. sc-380), and an anti-Gβ4 antibody (SantaCruz, Product No. sc-382). […]

T1 sequence (P42338 whole entry): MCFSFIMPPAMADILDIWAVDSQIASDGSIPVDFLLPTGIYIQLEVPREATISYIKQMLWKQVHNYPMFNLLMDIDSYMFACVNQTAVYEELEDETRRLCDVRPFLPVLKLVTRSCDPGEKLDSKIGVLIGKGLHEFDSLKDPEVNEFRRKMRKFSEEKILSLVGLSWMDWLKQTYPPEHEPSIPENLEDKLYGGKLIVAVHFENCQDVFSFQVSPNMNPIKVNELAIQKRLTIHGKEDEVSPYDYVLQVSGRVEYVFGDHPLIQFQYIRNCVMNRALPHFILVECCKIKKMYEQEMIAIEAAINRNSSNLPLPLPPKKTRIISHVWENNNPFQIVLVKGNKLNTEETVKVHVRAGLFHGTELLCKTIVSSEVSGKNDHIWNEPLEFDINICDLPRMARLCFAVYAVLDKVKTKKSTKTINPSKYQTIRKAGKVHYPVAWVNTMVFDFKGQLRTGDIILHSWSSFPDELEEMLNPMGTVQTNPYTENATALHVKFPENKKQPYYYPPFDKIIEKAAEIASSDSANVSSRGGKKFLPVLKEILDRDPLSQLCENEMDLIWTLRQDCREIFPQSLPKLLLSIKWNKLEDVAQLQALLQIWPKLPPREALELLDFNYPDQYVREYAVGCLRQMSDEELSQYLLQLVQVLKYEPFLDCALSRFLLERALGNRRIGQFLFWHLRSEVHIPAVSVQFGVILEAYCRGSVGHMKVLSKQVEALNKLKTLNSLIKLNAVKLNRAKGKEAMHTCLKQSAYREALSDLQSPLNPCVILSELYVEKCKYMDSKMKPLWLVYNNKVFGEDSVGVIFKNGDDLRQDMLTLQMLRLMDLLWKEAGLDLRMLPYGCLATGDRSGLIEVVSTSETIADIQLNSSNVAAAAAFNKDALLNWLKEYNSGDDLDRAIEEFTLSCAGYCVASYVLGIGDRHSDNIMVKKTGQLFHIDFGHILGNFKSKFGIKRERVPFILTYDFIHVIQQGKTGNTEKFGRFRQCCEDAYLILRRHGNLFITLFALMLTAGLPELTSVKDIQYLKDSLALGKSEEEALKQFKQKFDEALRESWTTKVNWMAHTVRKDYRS
T1 sequence (P27986 whole entry partner): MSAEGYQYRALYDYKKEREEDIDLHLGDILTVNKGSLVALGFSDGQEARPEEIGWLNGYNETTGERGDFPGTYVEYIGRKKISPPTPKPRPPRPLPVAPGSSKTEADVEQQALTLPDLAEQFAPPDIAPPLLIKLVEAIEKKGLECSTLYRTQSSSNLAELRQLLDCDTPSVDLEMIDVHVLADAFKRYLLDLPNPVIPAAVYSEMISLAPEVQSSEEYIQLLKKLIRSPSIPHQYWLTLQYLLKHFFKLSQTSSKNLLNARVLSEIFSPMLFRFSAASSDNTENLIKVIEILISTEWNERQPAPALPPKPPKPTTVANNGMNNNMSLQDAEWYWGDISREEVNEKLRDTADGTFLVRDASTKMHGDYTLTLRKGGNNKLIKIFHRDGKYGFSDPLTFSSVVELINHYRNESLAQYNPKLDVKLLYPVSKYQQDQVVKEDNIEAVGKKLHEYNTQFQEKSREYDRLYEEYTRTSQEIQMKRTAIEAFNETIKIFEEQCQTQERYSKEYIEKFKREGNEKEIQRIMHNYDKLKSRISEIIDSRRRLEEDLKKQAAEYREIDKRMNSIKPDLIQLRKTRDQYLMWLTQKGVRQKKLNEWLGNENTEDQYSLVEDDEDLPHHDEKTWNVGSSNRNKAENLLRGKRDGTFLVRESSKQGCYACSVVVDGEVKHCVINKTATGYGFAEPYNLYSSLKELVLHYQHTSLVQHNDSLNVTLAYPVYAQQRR
T1 sequence (P62873 whole entry): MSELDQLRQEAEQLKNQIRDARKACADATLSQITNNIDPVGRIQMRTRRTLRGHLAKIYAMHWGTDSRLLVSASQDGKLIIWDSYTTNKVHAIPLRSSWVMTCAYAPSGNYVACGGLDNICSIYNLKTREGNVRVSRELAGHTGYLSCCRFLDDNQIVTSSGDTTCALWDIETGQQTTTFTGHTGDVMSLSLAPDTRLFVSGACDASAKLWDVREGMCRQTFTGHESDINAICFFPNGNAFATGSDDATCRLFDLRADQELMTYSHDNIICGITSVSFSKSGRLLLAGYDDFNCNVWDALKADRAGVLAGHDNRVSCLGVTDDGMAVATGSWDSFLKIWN
T1 sequence (P59768 with tags, fused parts or gaps partner limits assumed): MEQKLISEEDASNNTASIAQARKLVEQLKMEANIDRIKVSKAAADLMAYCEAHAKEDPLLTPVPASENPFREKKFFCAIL

effect on the binding between the Gβ and the p110β (PI3-kinase β) [1]	effect on PI3-kinase α activity [2]	Compound	phosphorylated Akt amount ([3]; HLF cells with Gβ siRNA (Gβ1, Gβ2, Gβ4))	phosphorylated Akt amount ([3]; HLF cells with negative control siRNA)
enhanced	only on the PI3-kinase β	O=C1NCC2=C1[C@@H](c1cccc3ccsc13)N(C(=O)CCc1ccccn1)[C@@H]1CCCC[C@H]1N2 [Compound 1]	–	–
enhanced	–	O=C1NCC2=C1[C@@H](c1ccccc1)N(C(=O)CO)[C@@H]1CCCC[C@H]1N2 [Compound 6]	not detected at any Compound 6 concentration	increased depending on the Compound 6 concentration
